Experimental data: patent US7214495B2, “Screening method” (Takeda Pharmaceutical Company Limited, priority 2002, dated 2007)

System: mouse insulinoma MIN6 cells
Assay: Insulin secretion from MIN6 cells with free fatty acid-BSA mixture (RIA)
Format: cell-based
Details: 300 μM to 1000 μM; fatty acid-BSA 4:1; 11 mM glucose; 90 (or 60) minutes
Method: The MIN6 cells were cultured in DMEM (high glucose, Invitrogen) containing 15% FCS (Trace Scientific Ltd.), 55 μM 2-mercaptoethanol, 100 U/ml penicillin and 100 μg/ml streptomycin, unless otherwise indicated. MIN6 cells were plated in a 96-well plate in 10^5 cells/well, followed by incubation at 37° C. for 3 days in a CO2 incubator adjusted to a concentration of 5% CO2. The medium was replaced by RPMI1640 (glucose free, Invitrogen) containing 10% FCS (Trace Scientific Ltd.), 5.5 mM glucose, 100 U/ml penicillin and 100 μg/ml streptomycin, followed by incubation for further 24 hours. After the medium was removed by suction, a solution mixture of free fatty acid-bovine serum albumin (BSA) (in a molar ratio of 4:1) diluted with RPMI1640 (glucose free, Invitrogen) containing 10% FCS (Trace Scientific Ltd.), 11 mM glucose, 100 U/ml penicillin and 100 μg/ml streptomycin was added to the cells, followed by reacting in a CO2 incubator adjusted to a 5% CO2 concentration at 37° C. for 90 minutes (or 60 minutes). After the reaction, the 96-well plate was centrifuged at 1500 rpm for 5 minutes and the culture supernatant was then recovered. The amount of insulin secreted into the culture supernatant was determined by radioimmunoassay (RIA) using the rat insulin RIA system (Amersham Pharmacia).

Row | Compound | insulin secretion by MIN6 cells
1 | CCCCCCCC/C=C\CCCCCCCC(=O)O [Oleic acid (C18:1), Oleic acid] | promoted
2 | CCCCC/C=C\C/C=C\C/C=C\CCCCC(=O)O [γ-Linolenic acid (C18:3), γ-Linolenic acid] | promoted
